Patent publication US9023789B2, “Amylin analogs and pharmaceutical compositions thereof” (Novo Nordisk A/S, priority 2012, dated 2015)
Converted amounts (≈) assume the structure as drawn. Where two headings read alike, the source gives them in different places. Numbered stars: 1 amine (or outer) side, 2 acyl side, 3 side chain; on linkers, the order of the positions; unused ones are H or OH. Bridge positions count the residues as written; N and C are the ends. Side chains are listed from the residue outwards. Peptide text beside a SMILES is read from it. * marks the point of attachment. C20 diacid = O=C(O)CCCCCCCCCCCCCCCCCCC(=O)*; γGlu = O=C(O)[C@H](CCC(=O)[*:2])N[*:1]

Assays:
[1] = ASSAY (IV) determination of solubility; format: physicochemical
How it was run: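 UPLC read-out of polypeptide concentration after centrifugation. Samples: aqueous polypeptide stock ([…]) + 100 mM buffer 1:1, glycylglycine pH 3.0–5.0 or bistrispropane pH 6.0–8.0; 18 h, RT.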

[2] = molecular target: T1, human amylin receptor (membranes from Amylin 3(a)/CRE-luc cells) (Homo sapiens, UniProt O60896+P30988); assay: ASSAY (V) binding to the human amylin receptor (SPA, 125I-rat amylin); details: for IC50: Table 4, read-out: hAmylin-R bind IC50;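 as to all read-outs here: competition binding of cell membranes (35 ng/µL) mixed with SPA beads in 384-well plates at 40 µL total volume, read by scintillation counting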
T1 construct: expressed in transfected cells
T1 sequence (P30988 25-474): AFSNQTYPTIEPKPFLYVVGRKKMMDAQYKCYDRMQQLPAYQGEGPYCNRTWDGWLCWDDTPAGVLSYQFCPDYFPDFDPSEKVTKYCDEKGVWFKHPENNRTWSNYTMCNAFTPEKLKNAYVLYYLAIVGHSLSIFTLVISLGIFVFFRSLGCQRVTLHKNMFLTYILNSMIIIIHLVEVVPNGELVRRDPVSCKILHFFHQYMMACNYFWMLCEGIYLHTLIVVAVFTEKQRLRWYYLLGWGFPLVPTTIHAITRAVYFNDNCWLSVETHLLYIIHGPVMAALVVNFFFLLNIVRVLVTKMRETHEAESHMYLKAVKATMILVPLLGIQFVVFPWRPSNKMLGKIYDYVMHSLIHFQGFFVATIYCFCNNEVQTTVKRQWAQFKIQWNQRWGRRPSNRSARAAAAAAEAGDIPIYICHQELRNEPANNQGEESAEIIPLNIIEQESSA
T1 sequence (O60896 24-148 partner): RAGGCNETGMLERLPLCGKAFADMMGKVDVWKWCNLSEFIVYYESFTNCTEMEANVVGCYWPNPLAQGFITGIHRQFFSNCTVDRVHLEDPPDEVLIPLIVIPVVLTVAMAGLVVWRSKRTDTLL

[3] = molecular target: T2, rat amylin receptor (rat calcitonin receptor + rat RAMP 3) (Rattus norvegicus, UniProt P32214+Q9JJ73); assay: ASSAY (VI) binding to the rat amylin receptor; details: for IC50: binding to rat amylin receptor, read-out: rAmylin-R bind IC50
T2 construct: expressed in transfected cells; host or cells: BHK tk'ts 13 (transient, FuGENE 6), membranes
T2 sequence (P32214 25-479 isoform P32214-2 limits assumed): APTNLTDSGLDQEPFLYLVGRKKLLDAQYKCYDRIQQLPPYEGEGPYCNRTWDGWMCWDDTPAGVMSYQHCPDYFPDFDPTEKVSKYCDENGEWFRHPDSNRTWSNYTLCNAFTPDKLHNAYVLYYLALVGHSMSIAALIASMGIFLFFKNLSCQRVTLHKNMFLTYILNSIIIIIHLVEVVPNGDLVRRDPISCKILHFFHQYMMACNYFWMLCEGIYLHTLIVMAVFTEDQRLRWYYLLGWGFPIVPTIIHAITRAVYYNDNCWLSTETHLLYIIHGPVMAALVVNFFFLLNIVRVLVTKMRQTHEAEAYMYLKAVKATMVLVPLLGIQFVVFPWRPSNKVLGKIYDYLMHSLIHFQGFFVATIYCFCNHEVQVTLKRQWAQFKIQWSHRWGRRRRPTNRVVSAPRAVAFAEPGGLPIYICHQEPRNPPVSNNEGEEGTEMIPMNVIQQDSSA
T2 sequence (Q9JJ73 23-147 partner): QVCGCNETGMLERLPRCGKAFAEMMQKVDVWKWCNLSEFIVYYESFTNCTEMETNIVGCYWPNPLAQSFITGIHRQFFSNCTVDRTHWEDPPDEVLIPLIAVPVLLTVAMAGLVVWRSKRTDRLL
How it was run: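 Membranes for this rat amylin receptor binding assay came from BHK tk′ts 13 cells. The cells were transiently transfected with rat calcitonin receptor using the FuGENE® 6 reagent from Roche, as the manufacturer recommends. The cells were collected approximately 48 hours after transfection, and membranes were then prepared.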

rat calcitonin receptor = molecular target: T3, rat calcitonin receptor (Rattus norvegicus, UniProt P32214); assay: ASSAY (VIII) binding to the rat calcitonin receptor; details: Table 7, read-out: rCTR bind IC50
T3 construct: expressed in transfected cells; host or cells: BHK tk'ts 13 (transient, FuGENE 6), membranes
T3 sequence (P32214 25-479 isoform P32214-2 limits assumed): T2 sequence (P32214 25-479 isoform P32214-2 limits assumed)
How it was run: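 Receptor source: membranes from transiently transfected BHK tk′ts 13 cells expressing rat calcitonin receptor, collected roughly 48 hours after transfection.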

[4] = bistrispropane buffer, pH 6.5, read-out: Solubility pH 6.5 Concentration
[5] = bistrispropane buffer, pH 7.5, read-out: Solubility pH 7.5 Concentration
[6] = bistrispropane buffer, pH 6.0, read-out: Solubility pH 6.0 Concentration
[7] = bistrispropane buffer, pH 7.0, read-out: Solubility pH 7.0 Concentration
[8] = bistrispropane buffer, pH 8.0, read-out: Solubility pH 8.0 Concentration
[9] = glycylglycine buffer, pH 3.0, read-out: Solubility pH 3.0 Concentration
[10] = glycylglycine buffer, pH 4.0, read-out: Solubility pH 4.0 Concentration
[11] = glycylglycine buffer, pH 5.0, read-out: Solubility pH 5.0 Concentration
[12] = Table 5, selectivity, hCTR bind IC50 / hAmylin-R bind IC50
[13] = Table 5a, selectivity, hCTR bind IC50 / hAmylin-R bind IC50
[14] = Table 5b, selectivity, hCTR bind IC50 / hAmylin-R bind IC50
[15] = Table 5c, selectivity, hCTR bind IC50 / hAmylin-R bind IC50
[16] = Table 7, human binding selectivity, included for comparison
[17] = Table 7a (preferred compounds), human binding selectivity, included for comparison
[18] = ratio of human calcitonin receptor binding IC50 to human amylin receptor binding IC50
[19] = Table 7, rat binding selectivity, rCTR IC50 / rAmylin-R IC50
[20] = Table 7a (preferred compounds), rat binding selectivity, rCTR IC50 / rAmylin-R IC50
[21] = ratio of rCTR bind IC50 to rAmylin-R bind IC50

Compound	solubility at 18 h [1, 4]	solubility at 18 h [1, 5]	solubility at 18 h [1, 6]	solubility at 18 h [1, 7]	solubility at 18 h [1, 8]	solubility at 18 h [1, 9]	solubility at 18 h [1, 10]	solubility at 18 h [1, 11]	IC50 [2]	Ratio hCT/hAmylin binding [2, 12]	Ratio hCT/hAmylin binding [2, 13]	Ratio hCT/hAmylin binding [2, 14]	Ratio hCT/hAmylin binding [2, 16]	Ratio hCT/hAmylin binding [2, 17]	Ratio hCT/hAmylin binding [2, 18]	IC50 ([3]; Table 7)	Ratio rCT/rAmylin binding [3, 19]	Ratio rCT/rAmylin binding [3, 20]	Ratio rCT/rAmylin binding [3, 21]	IC50 (rat calcitonin receptor)	also measured
CC(C)C[C@H](NC(=O)[C@H](CCCNC(=N)N)NC(=O)[C@H](CCC(N)=O)NC(=O)[C@@H](NC(=O)[C@H](C)NC(=O)[C@@H]1CSSC[C@H](NC(=O)[C@@H](N)CCCCNC(=O)CC[C@H](NC(=O)CC[C@H](NC(=O)CCCCCCCCCCCCCCCCCCC(=O)O)C(=O)O)C(=O)O)C(=O)N[C@@H](CC(N)=O)C(=O)N[C@@H]([C@@H](C)O)C(=O)N[C@@H](C)C(=O)N[C@@H]([C@@H](C)O)C(=O)N1)[C@@H](C)O)C(=O)N[C@@H](C)C(=O)N[C@@H](CC(=O)O)C(=O)N[C@@H](Cc1ccccc1)C(=O)N[C@@H](CC(C)C)C(=O)N[C@@H](CCCNC(=N)N)C(=O)N[C@@H](Cc1c[nH]cn1)C(=O)N[C@@H](CO)C(=O)N[C@@H](CO)C(=O)N1CCC[C@H]1C(=O)N[C@@H](CC(N)=O)C(=O)N[C@@H](Cc1ccccc1)C(=O)NCC(=O)N[C@@H](C)C(=O)N1CCC[C@H]1C(=O)N[C@@H](CC(C)C)C(=O)N[C@@H](CO)C(=O)N[C@@H](CO)C(=O)N[C@H](C(=O)N[C@@H](CC(N)=O)C(=O)N[C@H](C(=O)NCC(=O)N[C@@H](CO)C(=O)N[C@@H](CC(=O)O)C(=O)N[C@H](C(=O)N[C@@H](Cc1ccc(O)cc1)C(N)=O)[C@@H](C)O)C(C)C)[C@@H](C)O [Example 1] (H-K([γGlu-γGlu-C20 diacid])CNTATCATQRLADFLRHSSPNFGAPLSSTNVGSDTY-NH2; disulfide 2-7)	≥ 200 µM	≥ 200 µM	≥ 200 µM	≥ 200 µM	≥ 200 µM	≥ 200 µM	≥ 200 µM	172 µM (≈ 776 µg/mL)	1.18 nM	27.6	27.6	27.6	27.6	27.6	27.6	1.3 nM	103.9	103.9	103.9	135 nM	Ratio hCT/hAmylin binding [2, 15]: 27.6
CC[C@H](C)[C@H](NC(=O)[C@H](C)NC(=O)CNC(=O)[C@H](Cc1ccccc1)NC(=O)[C@H](CC(N)=O)NC(=O)[C@@H]1CCCN1C(=O)[C@H](CO)NC(=O)[C@H](CO)NC(=O)[C@H](Cc1c[nH]cn1)NC(=O)[C@H](CCCNC(=N)N)NC(=O)[C@H](CC(C)C)NC(=O)[C@H](Cc1ccccc1)NC(=O)[C@H](CC(N)=O)NC(=O)[C@H](C)NC(=O)[C@H](CC(C)C)NC(=O)[C@H](CCCNC(=N)N)NC(=O)[C@H](CCC(N)=O)NC(=O)[C@@H](NC(=O)[C@H](C)NC(=O)[C@@H]1CSSC[C@H](NC(=O)[C@H](CCCCN)NC(=O)CC[C@H](NC(=O)CCCCCCCCCCCCCCCCCCC(=O)O)C(=O)O)C(=O)N[C@@H](CC(N)=O)C(=O)N[C@@H]([C@@H](C)O)C(=O)N[C@@H](C)C(=O)N[C@@H]([C@@H](C)O)C(=O)N1)[C@@H](C)O)C(=O)N1CCC[C@H]1C(=O)N[C@@H](CO)C(=O)N[C@@H](CO)C(=O)N[C@H](C(=O)N[C@@H](CC(N)=O)C(=O)N[C@H](C(=O)NCC(=O)N1CCC[C@H]1C(=O)N[C@@H](CCC(=O)O)C(=O)N[C@H](C(=O)N[C@@H](Cc1ccc(O)cc1)C(N)=O)[C@@H](C)O)C(C)C)[C@@H](C)O [Example 29] ({C20 diacid-γGlu}-KCNTATCATQRLANFLRHSSPNFGAIPSSTNVGPETY-NH2; disulfide 2-7)	≥ 200 µM	≥ 200 µM	≥ 200 µM	≥ 200 µM	≥ 200 µM	≥ 200 µM	≥ 200 µM	≥ 200 µM		13.9	13.9		13.9	13.9	13.9	0.322 nM	67.0	67.0	67.0	21.6 nM	
CC[C@H](C)[C@H](NC(=O)[C@H](C)NC(=O)CNC(=O)[C@H](Cc1ccccc1)NC(=O)[C@H](CC(N)=O)NC(=O)[C@@H]1CCCN1C(=O)[C@H](CO)NC(=O)[C@H](CO)NC(=O)[C@H](Cc1c[nH]cn1)NC(=O)[C@H](CCCNC(=N)N)NC(=O)[C@H](CC(C)C)NC(=O)[C@H](Cc1ccccc1)NC(=O)[C@H](CC(N)=O)NC(=O)[C@H](C)NC(=O)[C@H](CC(C)C)NC(=O)[C@H](CCCNC(=N)N)NC(=O)[C@H](CCC(N)=O)NC(=O)[C@@H](NC(=O)[C@H](C)NC(=O)[C@@H]1CSSC[C@H](NC(=O)[C@@H](N)CCCCNC(=O)COCCOCCNC(=O)CC[C@H](NC(=O)CCCCCCCCCCCCCCCCCCC(=O)O)C(=O)O)C(=O)N[C@@H](CC(N)=O)C(=O)N[C@@H]([C@@H](C)O)C(=O)N[C@@H](C)C(=O)N[C@@H]([C@@H](C)O)C(=O)N1)[C@@H](C)O)C(=O)N1CCC[C@H]1C(=O)N[C@@H](CO)C(=O)N[C@@H](CO)C(=O)N[C@H](C(=O)N[C@@H](CC(N)=O)C(=O)N[C@H](C(=O)NCC(=O)N[C@@H](CO)C(=O)N[C@@H](CC(N)=O)C(=O)N[C@H](C(=O)N[C@@H](Cc1ccc(O)cc1)C(N)=O)[C@@H](C)O)C(C)C)[C@@H](C)O [Example 41]									0.427 nM	49.9	49.9	49.9	49.9	49.9	49.9	1.37 nM	54.0	54.0	54.0	74.1 nM	Ratio hCT/hAmylin binding [2, 15]: 49.9
